Biological target: T1, MFN2 (FRET-MFN2) (Homo sapiens, UniProt O95140)
T1 sequence (O95140 1-757): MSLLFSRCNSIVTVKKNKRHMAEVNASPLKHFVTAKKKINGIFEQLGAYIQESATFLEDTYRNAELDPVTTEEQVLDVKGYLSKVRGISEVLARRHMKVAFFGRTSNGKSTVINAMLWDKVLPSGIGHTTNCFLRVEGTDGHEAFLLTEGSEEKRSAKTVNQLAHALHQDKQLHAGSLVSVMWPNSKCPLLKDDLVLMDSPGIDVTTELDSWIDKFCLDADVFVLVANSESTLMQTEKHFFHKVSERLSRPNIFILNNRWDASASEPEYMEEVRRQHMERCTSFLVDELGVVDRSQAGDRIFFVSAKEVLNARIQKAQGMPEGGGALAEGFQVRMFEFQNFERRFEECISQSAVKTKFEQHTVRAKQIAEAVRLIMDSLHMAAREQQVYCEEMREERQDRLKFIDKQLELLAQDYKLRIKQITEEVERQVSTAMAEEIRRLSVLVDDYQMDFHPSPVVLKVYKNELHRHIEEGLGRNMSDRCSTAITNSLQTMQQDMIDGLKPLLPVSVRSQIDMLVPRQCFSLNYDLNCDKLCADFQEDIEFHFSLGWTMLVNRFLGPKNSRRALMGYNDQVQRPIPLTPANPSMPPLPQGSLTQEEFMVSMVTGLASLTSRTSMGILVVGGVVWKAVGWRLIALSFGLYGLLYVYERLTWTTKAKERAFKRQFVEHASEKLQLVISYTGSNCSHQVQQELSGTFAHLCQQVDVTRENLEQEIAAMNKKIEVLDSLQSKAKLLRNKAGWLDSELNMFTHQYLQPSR
Assay: Cerulean/Venus FRET of MFN2 conformation, isolated mitochondria
Format: biochemical
Conditions: 1 uM compound, 4 h, room temperature, pH 7.4; allosteric

Compound: O=C(CCCCCc1ccccc1)N[C@H]1CC[C@H](O)CC1 [trans-MiM111, N-(trans-4-Hydroxycyclohexyl)-6-phenylhexanamide]
- FRET: trans-MiM111 and CPR1-B promoted a relaxed WT MFN2 conformation
